# Experiments:
# Type in all cases: cell-based
# [1] = test system: NIH3T3 cells; experiment: Destabilization mutant screening of human CA2 linked to GFP, ligand response by FACS (Valdecoxib, Celecoxib, Acetazolamide)
# Description: To identify destabilizing mutations of human CA2 that are stabilized upon ligand binding to CA2, two rounds of mutant screening were performed, using a lentivirus CA2 mutant library provided by Genscript (China). These methods were used to generate a library of mutant polypeptides using mutagenesis primers and error prone PCR. Lentiviral vectors expressing the template, wild-type human CA2 operably linked to GFP(OT-001986) was also provided by Genscript along with the CA2 mutant library. The library was packaged into lentivirus, transduced into NIH3T3 cells at a multiplicity of infection (MOI) of approximately 0.3 and select stable cell pools were derived by selecting with selection marker puromycin.
# To identify cell pools containing destabilizing mutants of CA2 that are stabilizing when CA2 is bound to its corresponding ligand, cells were sorted using FACS. In the initial round, the bottom 15% of population that was GFP negative in the absence of ligand was selected. Cells were expanded and then treated with 10 μM Celecoxib for 24 hours and harvested for cell sorting. The top 11% GFP positive cells which were also responsive to ligand treatment compared to untreated were collected. Celecoxib was removed from the cultures and replaced with DMSO. […] Genomic DNA was isolated and amplified CA2 mutants were reintroduced to the lentiviral vectors where CA2 was operably linked to GFP. The constructs were transduced into NIH3T3 cells with lentivirus vectors for each clone. The cells were treated with 10 μM Valdecoxib or 10 μM Celecoxib for 24 hours and analyzed by FACS. […] In Table 25, the Construct ID (OT-XXXXXX) refers to the construct which includes the referenced CA2 mutant and the Library ID (LibCXXXXXX) refers to the CA2 mutant itself.
# The response of NIH3T3 cells to varying doses of Valdecoxib or Celecoxib for 24 hours was measured and analyzed by FACS.
# Clones treated with different ligands were compared to examine the behavior of each mutant with the ligands.
# [2] = test system: NIH3T3 cells; experiment: Immunoblotting of cell lysates for GFP after ligand treatment; details: 24 hours
# Description: The protein expression in the presence of ligand was measured by immunoblotting the cell lysates for GFP.
# The protein expression in the presence of ligand was measured by immunoblotting cell lysates for GFP.
# [3] = test system: NIH3T3 cells; experiment: Destabilization mutant screening of human CA2 linked to GFP, ligand response by FACS (Valdecoxib, Celecoxib, Acetazolamide); remark: listed apart in the source
# [4] = NIH3T3, Celecoxib 0 μM, 24 hours
# [5] = NIH3T3, Celecoxib 0.03 μM, 24 hours
# [6] = NIH3T3, Celecoxib 0.1 μM, 24 hours
# [7] = NIH3T3, Celecoxib 0.3 μM, 24 hours
# [8] = NIH3T3, Celecoxib 1 μM, 24 hours
# [9] = NIH3T3, Celecoxib 3 μM, 24 hours
# [10] = NIH3T3, Celecoxib 10 μM, 24 hours
# [11] = NIH3T3, Celecoxib 30 μM, 24 hours
# [12] = NIH3T3, Valdecoxib 0 μM, 24 hours
# [13] = NIH3T3, Valdecoxib 0.03 μM, 24 hours
# [14] = NIH3T3, Valdecoxib 0.1 μM, 24 hours
# [15] = NIH3T3, Valdecoxib 0.3 μM, 24 hours
# [16] = NIH3T3, Valdecoxib 1 μM, 24 hours
# [17] = NIH3T3, Valdecoxib 3 μM, 24 hours
# [18] = NIH3T3, Valdecoxib 10 μM, 24 hours
# [19] = NIH3T3, Valdecoxib 30 μM, 24 hours
substance,measurement,setting,value
"CA2 (aa 2-260 of WT, L156H, S172C, F178Y, E186D) [LibC000193]",Median PE,"[1]; NIH3T3, 10 μM Celecoxib",7428
same,SR (stabilization ratio),"[1]; NIH3T3, 10 μM Celecoxib vs DMSO",10.71
same,Median PE,"[1]; NIH3T3, 10 μM Valdecoxib",6445
same,SR (stabilization ratio),"[1]; NIH3T3, 10 μM Valdecoxib vs DMSO",9.3
same,Median FITC / Median PE,"[1]; NIH3T3, Acetazolamide 0.03 μM, 24 hours",854
same,Fold change,"[1]; NIH3T3, Acetazolamide 0.1 μM vs DMSO",2.92
same,Median FITC / Median PE,"[1]; NIH3T3, Acetazolamide 0.1 μM, 24 hours",1628
same,Fold change,"[1]; NIH3T3, Acetazolamide 0.3 μM vs DMSO",6.59
same,Median FITC / Median PE,"[1]; NIH3T3, Acetazolamide 0.3 μM, 24 hours",3669
same,Fold change,"[1]; NIH3T3, Acetazolamide 1 μM vs DMSO",13.34
same,Median FITC / Median PE,"[1]; NIH3T3, Acetazolamide 1 μM, 24 hours",7445
same,Fold change,"[1]; NIH3T3, Acetazolamide 3 μM vs DMSO",18.31
same,Median FITC / Median PE,"[1]; NIH3T3, Acetazolamide 3 μM, 24 hours",10200
same,"MFI, comparative analysis","[1]; NIH3T3, Acetazolamide 10 μM",11900
same,Fold change,"[1]; NIH3T3, Acetazolamide 10 μM vs DMSO",21.36
same,Median FITC / Median PE,"[1]; NIH3T3, Acetazolamide 10 μM, 24 hours",11900
same,"MFI, comparative analysis","[1]; NIH3T3, Acetazolamide 30 μM",12900
same,Fold change,"[1]; NIH3T3, Acetazolamide 30 μM vs DMSO",23.16
same,Median FITC / Median PE,"[1]; NIH3T3, Acetazolamide 30 μM, 24 hours",12900
same,Med (median fluorescence intensity),[1]; [4],826
same,SR (stabilization ratio),[1]; [4],1
same,Med (median fluorescence intensity),[1]; [5],935
same,SR (stabilization ratio),[1]; [5],1.13
same,Med (median fluorescence intensity),[1]; [6],1005
same,SR (stabilization ratio),[1]; [6],1.22
same,Med (median fluorescence intensity),[1]; [7],1211
same,SR (stabilization ratio),[1]; [7],1.47
same,Med (median fluorescence intensity),[1]; [8],2058
same,SR (stabilization ratio),[1]; [8],2.49
same,Med (median fluorescence intensity),[1]; [9],4283
same,SR (stabilization ratio),[1]; [9],5.19
same,Med (median fluorescence intensity),[1]; [10],7751
same,SR (stabilization ratio),[1]; [10],9.38
same,Med (median fluorescence intensity),[1]; [11],11100
same,SR (stabilization ratio),[1]; [11],13.44
same,"MFI, comparative analysis, normalized to parental day 1","[1]; NIH3T3, Celecoxib μM (concentration not given)",6910.53
same,"MFI, comparative analysis","[1]; NIH3T3, DMSO",557
same,Median PE,"[1]; NIH3T3, DMSO",693
same,SR (stabilization ratio),"[1]; NIH3T3, DMSO (reference)",1
same,Median FITC / Median PE,"[1]; NIH3T3, DMSO, 24 hours (Acetazolamide experiment)",557
same,Med (median fluorescence intensity),[1]; [12],826
same,SR (stabilization ratio),[1]; [12],1
same,Med (median fluorescence intensity),[1]; [13],932
same,SR (stabilization ratio),[1]; [13],1.13
same,Med (median fluorescence intensity),[1]; [14],1013
same,SR (stabilization ratio),[1]; [14],1.23
same,Med (median fluorescence intensity),[1]; [15],1064
same,SR (stabilization ratio),[1]; [15],1.29
same,Med (median fluorescence intensity),[1]; [16],1583
same,SR (stabilization ratio),[1]; [16],1.92
same,Med (median fluorescence intensity),[1]; [17],3667
same,SR (stabilization ratio),[1]; [17],4.44
same,Med (median fluorescence intensity),[1]; [18],7449
same,SR (stabilization ratio),[1]; [18],9.02
same,Med (median fluorescence intensity),[1]; [19],9460
same,SR (stabilization ratio),[1]; [19],11.45
same,"MFI, comparative analysis, normalized to parental day 1","[1]; NIH3T3, Valdecoxib μM (concentration not given)",6641.277
same,stabilization with varying doses of Valdecoxib or Celecoxib,"[1]; NIH3T3 cells, 24 hours, FACS",dose dependent stabilization
same,"GFP protein expression by immunoblot, Acetazolamide","[2]; NIH3T3 cells, 0.3, 1, 3, 10 or 30 μM Acetazolamide",stabilization of GFP with increasing ligand doses
same,"GFP protein expression by immunoblot, Celecoxib or Valdecoxib","[2]; NIH3T3 cells, 1, 3, 10 or 30 μM Celecoxib or Valdecoxib",stabilization of GFP with increasing ligand doses
same,Fold change,"[3]; NIH3T3, Acetazolamide 0.03 μM vs DMSO",1.53
same,Fold change,"[3]; NIH3T3, DMSO (reference), Acetazolamide experiment",1
